Test results reported in patent US11198761B2, “Biodegradable polyionenes” (AGENCY FOR SCIENCE, TECHNOLOGY AND RESEARCH, priority 2017, dated 2021).

Legend:
[1] = test system: rat red blood cells (rRBCs); assay: Hemolysis assay; assay type: cell-based; conditions: Gemini-surfactant series S; 1 hour, 37° C.
Experimental: Freshly obtained rat red blood cells (rRBC) from the Animal Handling Unit of Biomedical Research Center (Singapore) was used to test the hemolytic activity of the polymers and Gemini-surfactants. The rRBC was diluted to 4% v/v with phosphate-buffered saline (PBS) and added to an equal volume of 0.2% v/v Triton-X solution. A microplate reader was used to measure the optical density (O.D.) reading to make sure the value is between 0.5 and 0.6. An equal volume of different polymer or Gemini-surfactant concentrations was added to the diluted blood and incubated for 1 hour at 37° C. The samples were centrifuged at 1000 g at 4° C. for 5 minutes and 100 μL of the supernatant was collected and transferred to a 96-well tissue culture plate. There were 4 replicates for each concentration. Haemoglobin release was measured using the microplate reader at 576 nm. rRBCs treated with PBS were used as the […] control, while those treated with 0.2% v/v Triton-X was used as the […] control.
Percentage of hemolysis was calculated as follows: Hemolysis (%)═[(O.D.576 nm of the treated sample−O.D.576 nm of negative control)/(O.D.576 nm of positive control−O.D.576 nm of negative control)]×100%
HC50 was taken as the polymer concentration at which the polymer causes 50% hemolysis.

[2] = test system: P. aeruginosa (ATCC No. 9027); assay: MIC, broth microdilution; assay type: cell-based, Pseudomonas aeruginosa; conditions: Gemini-surfactant series S; 18 hours, 37° C.
Experimental: (§1) Bacterial and fungal samples were inoculated according to ATCC's requirement. Briefly, bacteria and fungi were grown in Mueller Hinton Broth (MHB) at 37° C. and room temperature, respectively overnight to allow the microbes to enter the log growth phase with constant 100 rpm shaking. Minimum inhibitory concentration (MIC) of the polymers was determined using the broth microdilution method. 100 μL of 20% v/v water-containing broth with various polymer or Gemini-surfactant concentrations was first added into each well of a 96-well tissue culture plate. The inoculated overnight microbe solution was first diluted to an optical density (O.D.) reading of 0.07 using a microplate reader (TECAN, Switzerland). This will correspond to 3×10^8 CFU/mL based on the McFarland 1 standard solution (CFU=colony forming units). The microbe solution was further diluted 1000 times to achieve a final 3×10^5 CFU/mL. To each well, an equal volume of diluted microbes solution was added and incubated at 37° C. for 18 hours for bacteria samples and at room temperature for 42 hours for fungi samples. There were 6 replicates for each concentration tested, with negative control being microbes added into broth containing 20% v/v deionized water. MIC was taken as the lowest concentration at which there was no observable microbe growth when measured by the microplate reader.

[3] = test system: C. albicans (ATCC No 10231); assay: MIC, broth microdilution; assay type: cell-based, Candida albicans; conditions: Gemini-surfactant series S; 42 hours, room temperature
Experimental: as §1

[4] = test system: S. aureus (ATCC No. 6538); assay: MIC, broth microdilution; assay type: cell-based, Staphylococcus aureus; conditions: Gemini-surfactant series S; 18 hours, 37° C.
Experimental: as §1

E. coli (ATCC No. 25922) = assay: MIC, broth microdilution; assay type: cell-based, Escherichia coli; conditions: Gemini-surfactant series S; 18 hours, 37° C.
Experimental: as §1

SMILES | Hemolysis, HC50 [1] | MIC PA [2] [ppm] | MIC CA [3] [ppm] | MIC SA [4] [ppm] | MIC EC (E. coli (ATCC No. 25922)) [ppm]
CCCCCCCCCCCC[N+](C)(C)Cc1ccc(C(=O)NCCNC(=O)c2ccc(C[N+](C)(C)CCCCCCCCCCCC)cc2)cc1.[Cl-].[Cl-] [S-1h] | 125-250 ppm | 31 | 2 | 16 | 8
CCCCCCCC[N+](C)(C)Cc1ccc(C(=O)NCCNC(=O)c2ccc(C[N+](C)(C)CCCCCCCC)cc2)cc1.[Cl-].[Cl-] [S-1f] | >2000 ppm | >500 | 125 | 31 | 250
C[N+](C)(Cc1ccccc1)Cc1ccc(C(=O)NCCOCCOCCNC(=O)c2ccc(C[N+](C)(C)Cc3ccccc3)cc2)cc1.[Cl-].[Cl-] [S-5d] | >2000 ppm | >500 | >500 | >500 | >500
C=CC[N+](C)(C)Cc1ccc(C(=O)NCCOCCOCCNC(=O)c2ccc(C[N+](C)(C)CC=C)cc2)cc1.[Cl-].[Cl-] [S-5a] | >2000 ppm | >500 | >500 | >500 | >500
CCCCCCCCCC[N+](C)(C)Cc1ccc(C(=O)NCc2cccc(CNC(=O)c3ccc(C[N+](C)(C)CCCCCCCCCC)cc3)c2)cc1.[Cl-].[Cl-] [S-4g] | 63-125 ppm | 8 | 1 | 1 | 1
CCCCCCCCCC[N+](C)(C)Cc1ccc(C(=O)NCCCCCCOC(=O)c2ccc(C[N+](C)(C)CCCCCCCCCC)cc2)cc1.[Cl-].[Cl-] [S-13g] | 63-125 ppm | 4 | 1 | 1 | 1
CCCCCCCCCCCC[N+](C)(C)Cc1ccc(C(=O)NCCOCCOCCNC(=O)c2ccc(C[N+](C)(C)CCCCCCCCCCCC)cc2)cc1.[Cl-].[Cl-] [S-5h] | 16-31 ppm | 16 | 1 | 2 | 4
C=C(C)C(=O)OCC[N+](C)(C)Cc1ccc(C(=O)NCCOCCOCCNC(=O)c2ccc(C[N+](C)(C)CCOC(=O)C(=C)C)cc2)cc1.[Cl-].[Cl-] [S-5b] | >2000 ppm | >500 | >500 | >500 | >500
CCCCCCCCCC[N+](C)(C)Cc1ccc(C(=O)OCCCOC(=O)c2ccc(C[N+](C)(C)CCCCCCCCCC)cc2)cc1.[Cl-].[Cl-] [S-7g] | 63-125 ppm | 8 | 1 | 1 | 1
CCCCCCCCCC[N+](C)(C)Cc1ccc(C(=O)NCCCOCCOCCOCCCNC(=O)c2ccc(C[N+](C)(C)CCCCCCCCCC)cc2)cc1.[Cl-].[Cl-] [S-6g] | 250-500 ppm | 63 | 4 | 2 | 4
CCCCCCCCCCCC[N+](C)(C)Cc1ccc(C(=O)NCCNC(=O)c2ccc(C[N+](C)(C)CCCCCCCCCCCC)cc2)cc1.[Cl-].[Cl-] [S-1g] | 125-250 ppm | 16 | 2 | 1 | 2
CCCCCCCCCCCC[N+](C)(C)Cc1ccc(C(=O)NCCCOCCOCCOCCCNC(=O)c2ccc(C[N+](C)(C)CCCCCCCCCCCC)cc2)cc1.[Cl-].[Cl-] [S-6h] | 31-63 ppm | 8 | 4 | 1 | 2
CCCC[N+](C)(C)Cc1ccc(C(=O)NCCOCCOCCNC(=O)c2ccc(C[N+](C)(C)CCCC)cc2)cc1.[Cl-].[Cl-] [S-5e] | >2000 ppm | >500 | >500 | >500 | >500
CCCCCCCC[N+](C)(C)Cc1ccc(C(=O)NCCCCCCNC(=O)c2ccc(C[N+](C)(C)CCCCCCCC)cc2)cc1.[Cl-].[Cl-] [S-3f] | 500-1000 ppm | 500 | 8 | 4 | 16
CCCCCCCC[N+](C)(C)Cc1ccc(C(=O)NCc2cccc(CNC(=O)c3ccc(C[N+](C)(C)CCCCCCCC)cc3)c2)cc1.[Cl-].[Cl-] [S-4f] | 250-500 ppm | 250 | 125 | 2 | 8
CCCCCCCCCC[N+](C)(C)Cc1ccc(C(=O)OCc2ccc(COC(=O)c3ccc(C[N+](C)(C)CCCCCCCCCC)cc3)cc2)cc1.[Cl-].[Cl-] [S-12g] | 125-250 ppm | 8 | 2 | 1 | 2
CCCCCCCC[N+](C)(C)Cc1ccc(C(=O)NCCOCCOCCNC(=O)c2ccc(C[N+](C)(C)CCCCCCCC)cc2)cc1.[Cl-].[Cl-] [S-5f] | >2000 ppm | >500 | 125 | 31 | 250
C[N+](C)(Cc1ccc(C(=O)NCCOCCOCCNC(=O)c2ccc(C[N+](C)(C)C3CCCCC3)cc2)cc1)C1CCCCC1.[Cl-].[Cl-] [S-5c] | >2000 ppm | >500 | >500 | >500 | >500
CCCCCCCCCCCC[N+](C)(C)Cc1ccc(C(=O)NCCCCCCNC(=O)c2ccc(C[N+](C)(C)CCCCCCCCCCCC)cc2)cc1.[Cl-].[Cl-] [S-3h] | 125-250 ppm | 16 | 2 | 4 | 16
CCCCCCCCCC[N+](C)(C)Cc1ccc(C(=O)NCCOCCOCCNC(=O)c2ccc(C[N+](C)(C)CCCCCCCCCC)cc2)cc1.[Cl-].[Cl-] [S-5g] | 125-250 ppm | 63 | 2 | 2 | 4
CCCCCCCCCC[N+](C)(C)Cc1ccc(C(=O)OCCCCCCOC(=O)c2ccc(C[N+](C)(C)CCCCCCCCCC)cc2)cc1.[Cl-].[Cl-] [S-9g] | 125-250 ppm | 8 | 1 | 1 | 2
CCCCCCCCCC[N+](C)(C)Cc1ccc(C(=O)OCCCCCCCCCCCCOC(=O)c2ccc(C[N+](C)(C)CCCCCCCCCC)cc2)cc1.[Cl-].[Cl-] [S-10g] | 63-125 ppm | 500 | 16 | 16 | 500
CCCCCCCCCCCC[N+](C)(C)Cc1ccc(C(=O)NCc2cccc(CNC(=O)c3ccc(C[N+](C)(C)CCCCCCCCCCCC)cc3)c2)cc1.[Cl-].[Cl-] [S-4h] | 63-125 ppm | 31 | 2 | 8 | 8
CCCCCCCC[N+](C)(C)Cc1ccc(C(=O)NCCCOCCOCCOCCCNC(=O)c2ccc(C[N+](C)(C)CCCCCCCC)cc2)cc1.[Cl-].[Cl-] [S-6f] | >2000 ppm | >500 | 16 | 16 | 125
